Laboratory results reported in PMC11237012, “Synthesis and preliminary evaluation of novel PET probes for GSK-3 imaging” (Scientific Reports, 2024).

What was measured:
[1] = Radiochemical stability in mouse serum (rad-TLC); assay type: in vitro ADME; settings: 37 °C
Protocol: (§1) The stability of PET probes [^18F]2 and [^18F]6 was measured in isotonic NaCl solution (0.9% NaCl) and mouse and human serums at 37 °C for up to 120 min by rad-TLC at 0 min, 30 min, 60 min and 120 min post incubation. The results obtained are presented in Fig. 5 and SI-Figs. S10–S15, SI-Table S1. […] The plausible explanation of the instability of [^18F]6 could be attributed to the covalent interaction of [^18F]6’s SO2F group with primary amines of amino acid residues present in the protein rich mouse and human serums. In fact, in an unrelated study, Zhao et al. reported formation of sulfonamide bond between sulfuryl fluoride and primary amine of conserved lysine residues of different kinases. […] Based on 2’s favorable blood–brain barrier permeability, nanomolar binding affinity and PET probe [^18F]2’s excellent stability in both mouse and human serums, further in vivo evaluations were performed only with PET probe [^18F]2.
(§2) Stability of [^18F]2 and [^18F]6 was assessed in isotonic NaCl solution and human and mouse serums. To perform this stability assay, 100 µL of [^18F]2 (~ 37.0 MBq) or 100 µL of [^18F]6 (~ 37.0 MBq) as in final formulation was added to 100 µL of human serum or mouse serum in a microcentrifuge tube. The resultant mixture was incubated at 37 °C for 120 min. To assess the radiochemical stability of the probes, a small aliquot (~ 0.5 µL) was taken out from the mixture in triplicate at 0 min, 30 min, 60 min and 120 min during incubation, and analyzed on a rad-TLC using 0.5:9.5 methanol: chloroform as a mobile phase using i-TLC to estimate the stability of [^18F]2 or [^18F]6 at different time points post-incubation. After Stability preparative processes initial i-TLC development was considered as 0 min.

[2] = Radiochemical stability in human serum (rad-TLC); assay type: in vitro ADME; settings: 37 °C
Protocol: as §1, §2

Measured: Percentage of intact probe

O=C(Nc1cnccc1-c1ccc([18F])cc1)c1ccnc(NC(=O)C2CC2)c1 [[^18F]2]
100 ± 0.0%: [1]; 0 min | [1]; 30 min | [1]; 60 min | [2]; 0 min | [2]; 30 min | [2]; 60 min
